Source: ChEMBL document CHEMBL1201862, “PubChem BioAssay data set” (2004)
The source made the active and inactive calls.

Legend:
[1] = cytotoxicity in HMLE control line with eGFP shRNA, dose response, counter-screen for HMLE_sh_ECad selective toxicity project, cell-based, HMLE_sh_eGFP, luminescence (AID 463074); type: functional, Homo sapiens;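 note: HMLE human mammary epithelial cells expressing control shRNA against eGFP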
[2] = Luminescence Cell-Based Dose Retest to Confirm Inhibitors of Cancer Stem Cells. [Related pubchem assays (depositor defined):AID2717, AID2721]; type: functional; conditions: Homo sapiens
Vero = Vero cell cytotoxicity, cytotoxicity control for flavivirus capping enzyme inhibitors (AID 588742); type: functional; conditions: Chlorocebus sabaeus
Genome polyprotein = Genome polyprotein (dengue virus type 2, UniProt P29990); test: Dengue-2 NS5 methyltransferase inhibitors, primary screen, biochemical, confirmation dose response (AID 588689); type: functional
[3] = molecular target: T1, Microphthalmia-associated transcription factor (Homo sapiens, UniProt O75030); test: TRPM1 promoter luciferase signal decrease, dose response, MITF inhibitor project, cell-based, SK-MEL-5, cherry-picked, set 3 (AID 493073); type: functional
T1 sequence (O75030 whole entry): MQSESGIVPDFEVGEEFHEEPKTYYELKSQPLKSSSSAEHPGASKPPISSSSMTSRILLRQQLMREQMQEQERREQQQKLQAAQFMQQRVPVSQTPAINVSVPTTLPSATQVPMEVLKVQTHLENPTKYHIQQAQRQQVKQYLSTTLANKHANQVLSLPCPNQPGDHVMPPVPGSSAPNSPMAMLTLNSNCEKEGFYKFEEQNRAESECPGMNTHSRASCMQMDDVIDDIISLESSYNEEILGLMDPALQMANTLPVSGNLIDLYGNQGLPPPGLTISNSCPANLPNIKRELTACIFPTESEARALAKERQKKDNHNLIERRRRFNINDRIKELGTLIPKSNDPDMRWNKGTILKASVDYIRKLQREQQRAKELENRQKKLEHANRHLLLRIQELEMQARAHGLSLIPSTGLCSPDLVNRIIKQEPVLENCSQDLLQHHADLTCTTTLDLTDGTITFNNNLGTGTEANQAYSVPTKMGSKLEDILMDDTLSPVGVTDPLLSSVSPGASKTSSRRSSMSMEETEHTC

Large T antigen = Large T antigen (Simian virus 40, UniProt P03070); type: functional, Betapolyomavirus macacae;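 note: Confirmatory-stage PubChem screen for compounds that inhibit SV40 T antigen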
A-375 = test: MITF: Counter assay: A375 proliferation Measured in Cell-Based System Using Plate Reader - 2084-03_Inhibitor_Dose_DryPowder_Activity. [Related pubchem assays (depositor defined):AID488944]; type: functional; conditions: Homo sapiens
[4] = molecular target: Heat shock protein HSP 90-alpha (Homo sapiens, UniProt P07900); type: functional, organism-based
[5] = molecular target: COUP transcription factor 2 (Homo sapiens, UniProt P24468); test: Luminescence-based cell-based high throughput dose response assay to identify inhibitors of COUP-TFII (NR2F2).; type: functional;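 note: HEK293 cells transiently cotransfected with COUP-TFII expression vector and reporter; luciferase reporter luminescence driven by COUP-TFII from the pX2-168 reporter plasmid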
INS1 = test: beta cell apoptosis inhibitors, cytokine rescue, dose response, luminescence, retest (AID 449756); type: functional, cell-based; conditions: Rattus norvegicus;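 note: cell death triggered by IL-1 beta plus TNF-alpha plus IFN-gamma mixture; protective hits raise ATP signal compared with cytokine alone wells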
[6] = cytotoxicity in HEK-293T NF-kB-Luc cells, dose response, cytotoxicity control for B/T-cell NF-kB inhibitor project, cell-based, uHTS hits (AID 489019); type: functional;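 note: IC50 reflects cytotoxicity as loss of cell viability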
Jurkat = test: antigen receptor-induced NF-kB inhibitors, dose response, Jurkat, luciferase reporter, luminescence, B- and T-cell (AID 489004); type: functional, cell-based; conditions: Homo sapiens;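 note: NF-kB luciferase reporter Jurkat cells stimulated with PMA plus ionomycin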
[7] = molecular target: Dual specificity protein kinase CLK1 (Homo sapiens, UniProt P49759); test: CLK1 kinase inhibitors, off-target check, dose response, selectivity assay for Dyrk1A inhibitor project, biochemical, cherry-picked samples (AID 588811)
H4 = test: Luminescence Cell-Based Dose Response HTS to Identify Activators of 5'UTR Stem-Loop Driven Prion Protein mRNA Translation in H4 Neuroglioblastoma Cells. [Related pubchem assays: 1829 (Project Summary), 1814 (Primary HTS)]; type: functional; conditions: Homo sapiens
[8] = Luminescence Cell-Based Dose Response HTS to Identify Activators of Luciferase Translation or Activity in H4 […] Cells. [Related pubchem assays: 1829 (Project Summary), 1814 (Primary HTS)]; type: functional
HeLa = test: HeLa cell cytotoxicity, dose response, cytotoxicity control for MITF activator project, CellTiter-Glo luminescence, cherry-pick samples (AID 540259); type: functional, cell-based; conditions: Homo sapiens
[9] = Luminescence Cell-Based Dose Confirmation HTS to Identify Activators of 5'UTR Stem-Loop Driven Alpha-Synuclein mRNA Translation in H4 Neuroglioblastoma Cells. [Related pubchem assays: 1829 (Project Summary), 1814 (Primary HTS)]; type: functional
Beta-galactosidase = Beta-galactosidase (Escherichia coli, UniProt Q8VNN2); test: PubChem AID 485352; type: functional
[10] = molecular target: Type-1 angiotensin II receptor (Homo sapiens, UniProt P30556); test: AT1 receptor antagonists, dose response, selectivity assay for APJ receptor antagonist project, cell-based, uHTS hits (AID 463214); type: functional;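 note: antagonist potency against angiotensin II stimulated AT1 response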
[11] = molecular target: Dual specificity tyrosine-phosphorylation-regulated kinase 1A (Rattus norvegicus, UniProt Q63470); type: biochemical, Homo sapiens
[12] = cytotoxicity in MIN6 insulinoma cells, dose response, cytotoxicity control, cell-based, mouse insulinoma (AID 2122); type: functional;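 note: confirmatory high-throughput counterscreen run to flag cytotoxic compounds; mouse MIN-6 beta cells carrying an insulin promoter eGFP reporter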
[13] = insulin promoter down-regulators in MIN6 cells, imaging, high-content screening, mouse beta cells (AID 1628); type: functional
[14] = molecular target: T2, Rac GTPase-activating protein 1 (Homo sapiens, UniProt Q9H0H5); test: MgcRacGAP GTPase-activating activity inhibitors, confirmation, biochemical, ADP Hunter fluorescence, primary and confirmatory (AID 624330); type: functional
T2 sequence (Q9H0H5 whole entry): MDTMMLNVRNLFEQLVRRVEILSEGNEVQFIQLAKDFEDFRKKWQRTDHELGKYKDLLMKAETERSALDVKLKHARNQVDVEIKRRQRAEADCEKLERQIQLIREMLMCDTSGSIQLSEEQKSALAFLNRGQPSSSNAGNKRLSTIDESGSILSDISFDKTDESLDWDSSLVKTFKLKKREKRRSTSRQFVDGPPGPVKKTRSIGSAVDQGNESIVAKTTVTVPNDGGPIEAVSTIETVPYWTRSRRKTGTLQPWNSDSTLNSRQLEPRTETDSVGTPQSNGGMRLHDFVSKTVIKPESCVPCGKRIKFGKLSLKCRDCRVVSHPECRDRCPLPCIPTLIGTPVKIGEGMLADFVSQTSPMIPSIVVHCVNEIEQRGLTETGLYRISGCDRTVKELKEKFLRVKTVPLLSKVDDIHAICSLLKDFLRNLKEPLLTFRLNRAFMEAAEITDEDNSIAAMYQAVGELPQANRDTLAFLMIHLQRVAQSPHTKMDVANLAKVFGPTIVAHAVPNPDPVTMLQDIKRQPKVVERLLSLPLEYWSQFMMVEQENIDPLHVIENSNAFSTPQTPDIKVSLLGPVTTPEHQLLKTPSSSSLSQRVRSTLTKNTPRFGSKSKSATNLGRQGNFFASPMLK

HEK293 [15] = test: cells; conditions: Homo sapiens
HEK293 [16] = test: cells; conditions: Homo sapiens; remark: listed apart in the source
[17] = molecular target: T3, Lysine-specific demethylase 4C (Homo sapiens, UniProt Q9H3R0); test: GASC-1 (JMJD2C) histone demethylase inhibitors, dose response, biochemical, DELFIA europium, cherry-picked samples (AID 488835); type: functional
T3 sequence (Q9H3R0 whole entry): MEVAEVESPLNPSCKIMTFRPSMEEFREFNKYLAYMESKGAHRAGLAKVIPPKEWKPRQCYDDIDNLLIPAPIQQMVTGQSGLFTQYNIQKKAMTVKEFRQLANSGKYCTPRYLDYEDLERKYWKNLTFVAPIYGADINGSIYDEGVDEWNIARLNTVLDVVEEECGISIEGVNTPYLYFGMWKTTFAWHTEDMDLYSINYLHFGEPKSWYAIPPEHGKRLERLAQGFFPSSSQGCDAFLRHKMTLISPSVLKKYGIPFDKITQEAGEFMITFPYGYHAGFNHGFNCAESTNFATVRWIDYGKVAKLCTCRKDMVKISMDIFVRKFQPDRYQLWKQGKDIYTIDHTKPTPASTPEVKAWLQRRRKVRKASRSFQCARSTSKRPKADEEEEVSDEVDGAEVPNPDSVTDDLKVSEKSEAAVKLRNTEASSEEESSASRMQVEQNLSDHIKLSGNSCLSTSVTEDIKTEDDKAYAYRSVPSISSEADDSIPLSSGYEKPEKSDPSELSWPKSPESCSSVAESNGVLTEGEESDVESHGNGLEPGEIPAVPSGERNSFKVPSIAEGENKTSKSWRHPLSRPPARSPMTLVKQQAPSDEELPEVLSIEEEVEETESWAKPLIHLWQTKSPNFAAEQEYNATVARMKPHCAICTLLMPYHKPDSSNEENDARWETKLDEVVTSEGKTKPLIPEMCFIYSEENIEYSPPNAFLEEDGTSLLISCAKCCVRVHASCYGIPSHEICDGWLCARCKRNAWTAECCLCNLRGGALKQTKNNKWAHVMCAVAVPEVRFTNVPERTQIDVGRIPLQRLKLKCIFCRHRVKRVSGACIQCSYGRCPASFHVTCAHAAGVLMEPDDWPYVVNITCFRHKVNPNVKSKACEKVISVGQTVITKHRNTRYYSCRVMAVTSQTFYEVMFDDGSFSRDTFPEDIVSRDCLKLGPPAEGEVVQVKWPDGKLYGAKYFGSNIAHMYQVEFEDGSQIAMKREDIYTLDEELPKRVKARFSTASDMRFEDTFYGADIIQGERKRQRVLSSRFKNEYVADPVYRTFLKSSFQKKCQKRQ

[18] = molecular target: Induced myeloid leukemia cell differentiation protein Mcl-1 (Homo sapiens, UniProt Q07820); type: functional
Hexokinase HKDC1 [19] = molecular target: T4, Hexokinase HKDC1 (Homo sapiens, UniProt Q2TB90); test: SAR analysis of small molecule inhibitors of hexokinase domain containing I (HKDC1). [Related pubchem assays (depositor defined):AID493160, AID493190]; type: functional
T4 sequence (Q2TB90 whole entry): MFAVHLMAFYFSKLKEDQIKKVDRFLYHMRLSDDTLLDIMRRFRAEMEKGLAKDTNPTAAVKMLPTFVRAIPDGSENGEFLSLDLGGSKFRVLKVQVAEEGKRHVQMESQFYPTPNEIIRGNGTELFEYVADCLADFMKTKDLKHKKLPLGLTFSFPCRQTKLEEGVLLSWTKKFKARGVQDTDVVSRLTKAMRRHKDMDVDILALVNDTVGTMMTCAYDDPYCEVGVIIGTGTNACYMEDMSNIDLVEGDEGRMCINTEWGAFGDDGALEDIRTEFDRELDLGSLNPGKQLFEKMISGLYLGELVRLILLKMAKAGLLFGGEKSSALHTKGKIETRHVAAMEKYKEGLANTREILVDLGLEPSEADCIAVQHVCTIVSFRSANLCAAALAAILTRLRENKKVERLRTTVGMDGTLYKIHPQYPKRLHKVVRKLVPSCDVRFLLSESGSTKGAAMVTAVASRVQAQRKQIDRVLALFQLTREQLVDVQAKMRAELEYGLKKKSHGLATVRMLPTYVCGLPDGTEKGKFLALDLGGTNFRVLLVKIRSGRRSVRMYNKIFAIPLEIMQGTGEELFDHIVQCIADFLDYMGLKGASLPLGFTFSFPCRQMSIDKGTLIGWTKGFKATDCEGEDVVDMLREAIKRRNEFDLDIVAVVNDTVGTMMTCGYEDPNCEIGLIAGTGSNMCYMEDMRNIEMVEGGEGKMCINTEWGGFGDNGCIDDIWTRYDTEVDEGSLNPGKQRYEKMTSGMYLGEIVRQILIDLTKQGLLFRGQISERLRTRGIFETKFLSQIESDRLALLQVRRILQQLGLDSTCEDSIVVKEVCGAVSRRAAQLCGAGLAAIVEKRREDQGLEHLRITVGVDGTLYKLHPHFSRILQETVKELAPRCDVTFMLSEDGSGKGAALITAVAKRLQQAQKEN

Hexokinase HKDC1 [20] = molecular target: T4, Hexokinase HKDC1; test: HKDC1 hexokinase inhibitors, dose response, biochemical, W721R variant (AID 504729); type: functional
[21] = molecular target: Eukaryotic translation initiation factor 4E (Mus musculus, UniProt P63073); test: eIF4E–eIF4G protein interaction inhibitors, dose response, biochemical, TR-FRET (AID 855); type: functional;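 note: potency for disrupting eIF4E binding to eIF4GI seen as loss of FRET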
Hexokinase-1 = Hexokinase-1 (Homo sapiens, UniProt P19367); test: SAR analysis of small molecule inhibitors of hexokinase domain containing I (HKDC1) in the hexokinase 1 selectivity assay. [Related pubchem assays (depositor defined):AID493160, AID493190]; type: functional
Hexokinase-1, sequence (P19367 whole entry, the tested form may be a part): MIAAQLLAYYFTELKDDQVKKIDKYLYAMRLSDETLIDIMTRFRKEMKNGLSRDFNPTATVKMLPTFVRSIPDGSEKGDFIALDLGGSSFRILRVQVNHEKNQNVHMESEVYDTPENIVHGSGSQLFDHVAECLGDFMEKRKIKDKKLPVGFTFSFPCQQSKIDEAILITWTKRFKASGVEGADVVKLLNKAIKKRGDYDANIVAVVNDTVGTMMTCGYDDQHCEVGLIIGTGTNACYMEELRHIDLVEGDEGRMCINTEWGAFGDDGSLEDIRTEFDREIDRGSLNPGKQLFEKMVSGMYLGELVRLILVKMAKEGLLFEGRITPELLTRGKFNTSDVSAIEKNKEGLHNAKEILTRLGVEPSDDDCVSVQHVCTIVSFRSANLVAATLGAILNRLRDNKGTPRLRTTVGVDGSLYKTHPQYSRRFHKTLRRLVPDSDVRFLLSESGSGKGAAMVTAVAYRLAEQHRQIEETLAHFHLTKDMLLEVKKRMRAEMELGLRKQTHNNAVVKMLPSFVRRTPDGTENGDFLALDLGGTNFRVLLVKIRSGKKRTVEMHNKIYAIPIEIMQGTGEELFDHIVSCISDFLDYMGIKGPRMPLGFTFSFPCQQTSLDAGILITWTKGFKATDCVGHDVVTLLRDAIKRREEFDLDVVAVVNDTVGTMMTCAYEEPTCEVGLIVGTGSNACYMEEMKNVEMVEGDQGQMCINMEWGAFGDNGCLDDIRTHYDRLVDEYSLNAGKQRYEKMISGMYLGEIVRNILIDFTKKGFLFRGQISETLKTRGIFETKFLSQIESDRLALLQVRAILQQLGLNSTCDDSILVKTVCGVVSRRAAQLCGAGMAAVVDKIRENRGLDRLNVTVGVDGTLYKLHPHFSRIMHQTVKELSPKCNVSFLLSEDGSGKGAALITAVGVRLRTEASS

Type-1 angiotensin II receptor, sequence (P30556 whole entry): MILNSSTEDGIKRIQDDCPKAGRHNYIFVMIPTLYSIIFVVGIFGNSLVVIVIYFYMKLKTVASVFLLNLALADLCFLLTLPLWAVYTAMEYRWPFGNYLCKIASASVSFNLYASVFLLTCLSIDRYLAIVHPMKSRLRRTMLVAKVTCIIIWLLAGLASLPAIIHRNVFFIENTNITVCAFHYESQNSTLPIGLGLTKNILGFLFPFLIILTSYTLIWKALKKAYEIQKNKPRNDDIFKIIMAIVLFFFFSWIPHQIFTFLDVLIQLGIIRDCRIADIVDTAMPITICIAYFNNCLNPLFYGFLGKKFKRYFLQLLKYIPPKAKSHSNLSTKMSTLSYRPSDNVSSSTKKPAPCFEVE
Eukaryotic translation initiation factor 4E, sequence (P63073 whole entry, the tested form may be a part): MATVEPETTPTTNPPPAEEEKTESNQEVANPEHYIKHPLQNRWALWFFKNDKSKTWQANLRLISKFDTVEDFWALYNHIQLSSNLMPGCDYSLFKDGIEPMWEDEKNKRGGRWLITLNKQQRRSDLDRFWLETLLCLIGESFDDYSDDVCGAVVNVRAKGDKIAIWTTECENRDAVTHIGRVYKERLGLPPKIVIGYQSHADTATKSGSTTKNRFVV
Beta-galactosidase, sequence (Q8VNN2 whole entry): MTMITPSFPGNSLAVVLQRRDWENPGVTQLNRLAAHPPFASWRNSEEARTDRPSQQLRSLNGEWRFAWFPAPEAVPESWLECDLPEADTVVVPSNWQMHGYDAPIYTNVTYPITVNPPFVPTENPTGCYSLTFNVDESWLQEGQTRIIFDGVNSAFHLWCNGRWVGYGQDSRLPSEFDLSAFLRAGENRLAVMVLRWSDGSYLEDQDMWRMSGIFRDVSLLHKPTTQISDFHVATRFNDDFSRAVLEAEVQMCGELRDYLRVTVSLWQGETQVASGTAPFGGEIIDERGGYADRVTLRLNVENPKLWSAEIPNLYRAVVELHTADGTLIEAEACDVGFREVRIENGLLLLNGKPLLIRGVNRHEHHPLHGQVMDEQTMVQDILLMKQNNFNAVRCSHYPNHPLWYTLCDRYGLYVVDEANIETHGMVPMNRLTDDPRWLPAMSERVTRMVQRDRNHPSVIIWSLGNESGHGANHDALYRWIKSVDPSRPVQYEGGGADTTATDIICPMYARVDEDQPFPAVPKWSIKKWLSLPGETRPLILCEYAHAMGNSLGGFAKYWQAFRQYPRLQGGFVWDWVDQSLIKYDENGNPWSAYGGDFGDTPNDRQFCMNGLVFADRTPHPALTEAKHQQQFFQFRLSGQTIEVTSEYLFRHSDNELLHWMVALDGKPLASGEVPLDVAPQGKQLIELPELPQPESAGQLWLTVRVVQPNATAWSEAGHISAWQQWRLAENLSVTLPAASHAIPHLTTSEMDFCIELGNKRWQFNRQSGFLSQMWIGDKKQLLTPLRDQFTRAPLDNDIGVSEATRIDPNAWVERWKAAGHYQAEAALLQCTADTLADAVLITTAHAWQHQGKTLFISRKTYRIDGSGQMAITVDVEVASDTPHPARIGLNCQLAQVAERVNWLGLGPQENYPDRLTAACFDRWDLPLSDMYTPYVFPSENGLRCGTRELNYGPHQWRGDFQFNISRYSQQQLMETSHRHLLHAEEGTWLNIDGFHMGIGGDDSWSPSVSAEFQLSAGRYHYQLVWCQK
Large T antigen, sequence (P03070 whole entry): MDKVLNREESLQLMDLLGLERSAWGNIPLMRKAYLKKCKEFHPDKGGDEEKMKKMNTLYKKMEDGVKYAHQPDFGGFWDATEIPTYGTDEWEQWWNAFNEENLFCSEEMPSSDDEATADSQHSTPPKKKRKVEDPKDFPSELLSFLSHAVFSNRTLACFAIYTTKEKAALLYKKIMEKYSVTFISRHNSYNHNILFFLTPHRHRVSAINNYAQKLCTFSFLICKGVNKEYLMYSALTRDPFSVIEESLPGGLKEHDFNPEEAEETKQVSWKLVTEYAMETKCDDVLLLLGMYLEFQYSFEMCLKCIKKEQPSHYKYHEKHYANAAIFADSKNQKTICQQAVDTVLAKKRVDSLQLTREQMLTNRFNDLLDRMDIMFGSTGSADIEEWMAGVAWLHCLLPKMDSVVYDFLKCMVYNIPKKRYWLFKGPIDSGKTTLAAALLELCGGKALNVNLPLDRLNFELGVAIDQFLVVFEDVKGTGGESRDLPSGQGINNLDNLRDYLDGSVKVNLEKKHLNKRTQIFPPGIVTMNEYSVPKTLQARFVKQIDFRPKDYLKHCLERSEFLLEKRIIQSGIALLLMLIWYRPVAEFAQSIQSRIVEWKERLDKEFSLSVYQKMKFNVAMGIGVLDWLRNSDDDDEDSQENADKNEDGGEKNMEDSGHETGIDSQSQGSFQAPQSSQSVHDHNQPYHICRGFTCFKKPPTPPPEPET
Induced myeloid leukemia cell differentiation protein Mcl-1, sequence (Q07820 whole entry, the tested form may be a part): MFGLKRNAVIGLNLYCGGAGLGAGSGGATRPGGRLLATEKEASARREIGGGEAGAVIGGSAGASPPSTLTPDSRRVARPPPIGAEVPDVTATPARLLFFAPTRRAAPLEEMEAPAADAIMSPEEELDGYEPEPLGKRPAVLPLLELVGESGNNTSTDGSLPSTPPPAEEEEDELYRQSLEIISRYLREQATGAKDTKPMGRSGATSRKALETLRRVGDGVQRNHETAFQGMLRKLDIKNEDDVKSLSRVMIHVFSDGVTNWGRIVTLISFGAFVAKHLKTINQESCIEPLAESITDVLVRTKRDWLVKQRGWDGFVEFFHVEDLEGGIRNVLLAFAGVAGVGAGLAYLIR
COUP transcription factor 2, sequence (P24468 whole entry): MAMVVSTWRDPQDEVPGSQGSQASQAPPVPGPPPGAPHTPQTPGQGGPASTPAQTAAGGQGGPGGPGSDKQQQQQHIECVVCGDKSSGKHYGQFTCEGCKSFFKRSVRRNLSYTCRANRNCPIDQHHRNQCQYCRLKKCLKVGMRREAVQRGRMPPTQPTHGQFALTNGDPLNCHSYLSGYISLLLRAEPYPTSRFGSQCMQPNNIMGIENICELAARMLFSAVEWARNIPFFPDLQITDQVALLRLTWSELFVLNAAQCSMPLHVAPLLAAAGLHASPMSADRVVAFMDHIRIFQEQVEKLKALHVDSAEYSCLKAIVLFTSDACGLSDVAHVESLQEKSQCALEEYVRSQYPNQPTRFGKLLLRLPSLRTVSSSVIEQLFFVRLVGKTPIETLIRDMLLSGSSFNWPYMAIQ
Genome polyprotein, sequence (P29990 2492-3391 limits assumed): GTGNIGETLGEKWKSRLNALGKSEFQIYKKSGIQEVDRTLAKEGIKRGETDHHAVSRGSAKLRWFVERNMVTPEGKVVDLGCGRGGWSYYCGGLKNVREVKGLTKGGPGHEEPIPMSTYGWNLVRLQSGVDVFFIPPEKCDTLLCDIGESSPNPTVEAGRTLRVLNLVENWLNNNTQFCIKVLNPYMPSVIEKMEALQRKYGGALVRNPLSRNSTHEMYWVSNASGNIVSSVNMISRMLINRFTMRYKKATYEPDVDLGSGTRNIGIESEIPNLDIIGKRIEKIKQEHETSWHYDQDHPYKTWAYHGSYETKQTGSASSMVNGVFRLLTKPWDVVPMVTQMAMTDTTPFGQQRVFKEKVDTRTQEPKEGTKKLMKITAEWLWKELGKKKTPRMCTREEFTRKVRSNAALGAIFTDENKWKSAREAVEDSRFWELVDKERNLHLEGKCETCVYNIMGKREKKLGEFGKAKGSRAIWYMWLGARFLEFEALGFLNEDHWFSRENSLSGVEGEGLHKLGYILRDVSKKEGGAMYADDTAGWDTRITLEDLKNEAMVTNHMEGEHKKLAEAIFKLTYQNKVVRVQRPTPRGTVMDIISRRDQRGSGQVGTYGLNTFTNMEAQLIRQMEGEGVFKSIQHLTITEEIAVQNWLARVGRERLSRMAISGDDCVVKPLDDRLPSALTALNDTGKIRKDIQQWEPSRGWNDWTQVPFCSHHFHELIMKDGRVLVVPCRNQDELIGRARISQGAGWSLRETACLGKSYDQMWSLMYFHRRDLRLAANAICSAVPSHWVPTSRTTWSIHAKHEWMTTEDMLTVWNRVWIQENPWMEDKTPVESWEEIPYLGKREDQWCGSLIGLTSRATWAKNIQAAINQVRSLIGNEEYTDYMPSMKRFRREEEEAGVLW

COc1cc(NC(=O)c2cc(C)on2)cc(C(=O)Nc2cccc(C(F)(F)F)c2)c1
AC50 [1]: 24.2 µM (active)
AC50 [2]: 11.6 µM (active)

O=C(O)/C=C/C(=O)c1ccc2c(c1)CCc1ccccc1-2
CC50 (Vero): 17.2 µM (active)
IC50 (Genome polyprotein): 22.9 µM (active)
AC50 [3]: 15 µM (active)
IC50 (Large T antigen): 34.5 µM (active)
AC50 (A-375): 35 µM (active)
AC50 [4]: 16.6 µM (active)

CCCCCCn1ccc(=N)cc1
IC50 [5]: 15.8 µM (inactive)
AC50 (INS1): 3.13 µM (active)
IC50 [6]: 13 µM (active)
IC50 (Jurkat): > 80 µM (inactive)

Cc1nc(CNc2ncnc3ccc(-c4ccc5c(c4)OCO5)cc23)cs1
AC50 [7]: 0.0354 µM (active)

COC(=O)c1ccc(N2CCN(c3ccccc3)CC2)nc1
EC50 (H4): 0.114 µM (active)
EC50 [8]: > 120 µM (not active)
AC50 (HeLa): 53.8 µM (active)
EC50 [9]: > 120 µM (not active)

O=C(CCC(=O)OCC(=O)c1cccc([N+](=O)[O-])c1)NC1CCCCC1
EC50 (Beta-galactosidase): > 40 µM (inactive)
IC50 [10]: 25.2 µM (not active)

O=C(Nc1ccc2c[nH]nc2c1)c1ccccc1F
AC50 [11]: 20.8 µM (active)
EC50 (H4): > 120 µM (not active)

Nc1ccccc1Nc1cccc(C(F)(F)F)c1
IC50 [12]: 5.09 µM (active)
IC50 [13]: 4.45 µM (active)
IC50 [14]: 89 µM (active)
EC50 (HEK293 [15]): > 59.6 µM (inactive)
EC50 (HEK293 [16]): > 59.6 µM (inactive)

Cc1ccc(C)c(S(=O)(=O)Nc2cc(SCC(=O)O)c(O)c3ccccc23)c1
AC50 [17]: 4.94 µM (active)
IC50 [18]: 13.8 µM (active)
AC50 (INS1): 4.28 µM (active)
IC50 (Hexokinase HKDC1 [19]): 10.2 µM (active)
IC50 (Hexokinase HKDC1 [20]): 2.96 µM (active)
IC50 [21]: > 64 µM (inactive)
IC50 (Hexokinase-1): > 80 µM (inactive)
